Test results: ChEMBL document CHEMBL5576130, “Non-Covalent Inhibitors of SARS-CoV-2 Papain-Like Protease (PLpro): In Vitro and In Vivo Antiviral Activity” (J Med Chem, 2024)
The source made the active and inactive calls. No cut-off for these calls is given here.

Tests used:
SARS-CoV-2 [1] = test: Antiviral activity against SARS-CoV-2 USA-WA1/2020 infected in African green monkey Vero E6 cells […] for 1 hrs followed by viral infection and measured after 48 hrs; type: functional, organism-based; details: Severe acute respiratory syndrome coronavirus 2, USA-WA1/2020, Vero C1008
SARS-CoV-2 [2] = test: Antiviral activity against SARS-CoV-2 USA-WA1/2020 infected in African green monkey Vero cells assessed as reduction in viral growth at 2 to 20 uM measured after 2 days by plaque assay; type: functional, organism-based; details: Severe acute respiratory syndrome coronavirus 2, dose 2-20 µM, time 2.0 day
SARS-CoV-2 [3] = test: Antiviral activity against SARS CoV-2; type: functional, organism-based; details: Severe acute respiratory syndrome coronavirus 2
[4] = Plasma protein binding in human; type: ADME, cell-free
SARS-CoV-2 [5] = test: Antiviral activity against SARS-CoV-2 USA-WA1/2020 infected in African green monkey Vero cells assessed as reduction in viral growth at 10 uM measured after 2 days by plaque assay; type: functional, organism-based; details: Severe acute respiratory syndrome coronavirus 2, time 2.0 day

Compound | Activity (SARS-CoV-2 [2]) | further results
COC(=O)/C=C/C(=O)NNC(=O)CCc1ccccc1C(=O)N[C@H](C)c1cccc2ccccc12 |  | EC50 (SARS-CoV-2 [1]): 0.26 µM
Cc1ccc(NC2CNC2)cc1C(=O)N[C@H](C)c1cccc(-c2ccc(CN3CCCC3)s2)c1 | Active | 
Cc1ccc(NC2CNC2)cc1C(=O)N[C@H](C)c1cccc(-c2ccc(CNC(=O)C3CCCC3)s2)c1 | inactive | 
Nc1ccc2cc3ccc(N)cc3nc2c1 [PROFLAVINE] |  | EC50 (SARS-CoV-2 [3]): 64 µM
Cc1ccc(OCCN)cc1C(=O)N[C@H](C)c1cccc(-c2ccc(CN3CCCC3)s2)c1 | inactive | 
CC(=O)N1CCN(c2ccc(OCC3COC(Cn4ccnc4)(c4ccc(Cl)cc4Cl)O3)cc2)CC1 (stereo not drawn) [KETOCONAZOLE] |  | PPB [4]: 99.3%
Cc1ccc(OC2CNC2)cc1C(=O)N[C@H](C)c1cccc(-c2ccc(CN3CCCC3)s2)c1 | Active | 
Cc1ccc(NC2CNC2)cc1C(=O)N[C@H](C)c1cccc(-c2ccc(CN[C@H]3CC[C@@H](O)C3)s2)c1 (single isomer, unassigned) |  | Activity (SARS-CoV-2 [5]): inactive
